Experimental data as given in patent publication US5081152A, “Azulene derivatives as thromboxane A2 and prostaglandin endoperoxide receptor antagonist” (Kotobuki Seiyaku Co., Ltd., priority 1989, dated 1992).
Structures can show the parent of a compound that is named as a salt.

These compounds were tested against T1, Thromboxane A2 receptor (Rattus norvegicus, UniProt P34978) (assay: Thromboxane A2 receptor antagonistic action (inhibitory action of U-46619-induced contractions of rat aortic strips)). Settings: isolated helical strips of rat aorta precontracted with 3×10^-8 M U-46619; read-out: IC50 (the concentrations which inhibited the contraction by 50%).
T1 sequence (P34978 1-341): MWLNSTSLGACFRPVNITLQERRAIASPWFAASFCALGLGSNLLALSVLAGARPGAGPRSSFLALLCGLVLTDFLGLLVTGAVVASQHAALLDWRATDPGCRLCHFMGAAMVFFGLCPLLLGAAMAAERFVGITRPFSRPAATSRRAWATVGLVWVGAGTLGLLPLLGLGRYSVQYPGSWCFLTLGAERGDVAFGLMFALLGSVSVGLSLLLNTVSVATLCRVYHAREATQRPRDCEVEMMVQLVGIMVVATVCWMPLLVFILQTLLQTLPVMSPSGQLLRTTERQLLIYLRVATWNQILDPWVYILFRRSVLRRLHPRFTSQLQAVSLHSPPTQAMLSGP
Assay type: cell-based

Row | IC50 [µM] | SMILES
1 | 0.052 | CC(C)c1ccc2c(C/C=C\CNS(=O)(=O)c3ccccc3)cc(C(=O)O)c-2cc1 [Compound 68, 6-isopropyl-3-[4-(benzenesulfonylamino)-cis-2-butenyl]-azulene-1-carboxylic acid]
2 | 0.46 | CC(C)c1ccc2c(C/C=C/CNS(=O)(=O)c3ccccc3)cc(C(=O)O)c-2cc1 [Compound 69, 6-isopropyl-3-[4-(benzenesulfonylamino)-trans-2-butenyl]-azulene-1-carboxylic acid]
3 | 0.017 | CC(C)c1ccc2c(CCCCNS(=O)(=O)c3ccccc3)cc(S(=O)(=O)O)c-2cc1 [sodium salt]
